We go through 13 compounds from US20240317744A1, “Bicyclic Ureas As Kinase Inhibitors” (Incyte Corporation, priority 2023, published 2024).

Assay [1] addresses catalytic domain (JH1, amino acids 808-1132) of human JAK2 (Homo sapiens, UniProt O60674). Nature of the assay: JAK2 HTRF Enzyme Activity Assay. The assay is classed as biochemical. Conditions: ATP 30 µM, 60 minutes at 25° C.; read-out: V617F ENZ 30 UM.
For assay [2], the target named is T1, pseudo-kinase domain (JH2, amino-acids 536-812) of human V617F mutant JAK2 (Homo sapiens, UniProt O60674, F794H/V617F/W659A/W777A).
T1 construct: pseudo-kinase domain (JH2, amino-acids 536-812 with 3 surface mutations W659A, W777A, F794H); His (C); purchased BPS Bioscience 79498; host or cells: baculovirus expression system
The assay can be described thus: JAK2 LanthaScreen JH2-V617F Binding Assay. Conditions: JAK2 JH2-V617F 0.26 nM, 50 nM tracer, 1 hour at 25° C.; read-out: JH2 BIND V617F. A digest of the protocol: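 Serially diluted compounds are mixed with 0.26 nM protein, 50 nM fluorescent JAK2-JH2 tracer and 0.25 nM terbium-labelled streptavidin, then incubated 1 h at 25° C. LanthaScreen signal is read, and IC50 is fitted.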

Assay [3] deals with T2, catalytic domain (JH1, amino acids 826-1132) of human JAK2 (Homo sapiens, UniProt O60674).
T2 construct: catalytic domain (JH1, amino acids 826-1132) of human JAK2; FLAG (N); biotin (biotinylated); purchased Carna Biosciences 08-445-20N; host or cells: baculovirus expression system
The assay can be described thus: JAK2 LanthaScreen JH1 Binding Assay. Particulars: JAK2 JH1 1.5 nM, 50 nM tracer, 2 hours at 25° C.; read-out: JH1 BIND. A digest of the protocol:
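TR-FRET tracer-displacement format: compound IC50 from four-parameter curves after 2 h at 25° C. Reaction held 1.5 nM biotinylated, FLAG-tagged JH1 (aa 826-1132), 50 nM tracer, 0.5 nM Streptavidin-Tb, pH 7.5 Tris buffer; 2 mM ATP set nonspecific background.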

The target of assay [4] is T3, pseudo-kinase domain (JH2, amino-acids 536-812) of human Wild Type JAK2 (Homo sapiens, UniProt O60674, F794H/W659A/W777A).
T3 construct: pseudo-kinase domain (JH2, amino-acids 536-812 with 3 surface mutations W659A, W777A, F794H); His (C); purchased BPS Bioscience 79463; host or cells: baculovirus expression system
Nature of the assay: JAK2 LanthaScreen JH2-WT Binding Assay. Particulars: JAK2 JH2-WT 0.145 nM, 50 nM tracer, 1 hour at 25° C.; read-out: JH2 BIND WT. In a few lines:
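Biotinylated His-Avi-tagged JAK2 JH2 (0.145 nM), baculovirus-expressed, incubated with compounds, 50 nM fluorescent JH2 tracer and 0.25 nM streptavidin-Tb, 1 h at 25° C in pH 7.5 Tris buffer with MgCl2 and DTT. Non-specific binding defined with 2 mM ATP. TR-FRET read; IC50 from four-parameter fit.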

T3 sequence (O60674 536-812 W659A/W777A/F794H): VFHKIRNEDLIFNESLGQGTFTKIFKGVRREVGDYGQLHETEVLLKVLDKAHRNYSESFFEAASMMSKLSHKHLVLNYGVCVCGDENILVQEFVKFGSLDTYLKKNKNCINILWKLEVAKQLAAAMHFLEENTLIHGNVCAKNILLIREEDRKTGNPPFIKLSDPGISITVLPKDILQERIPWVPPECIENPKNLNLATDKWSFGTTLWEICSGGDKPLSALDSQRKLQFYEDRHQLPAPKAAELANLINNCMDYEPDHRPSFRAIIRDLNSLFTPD
catalytic domain (JH1, amino acids 808-1132) of human JAK2, sequence (O60674 808-1132 limits assumed): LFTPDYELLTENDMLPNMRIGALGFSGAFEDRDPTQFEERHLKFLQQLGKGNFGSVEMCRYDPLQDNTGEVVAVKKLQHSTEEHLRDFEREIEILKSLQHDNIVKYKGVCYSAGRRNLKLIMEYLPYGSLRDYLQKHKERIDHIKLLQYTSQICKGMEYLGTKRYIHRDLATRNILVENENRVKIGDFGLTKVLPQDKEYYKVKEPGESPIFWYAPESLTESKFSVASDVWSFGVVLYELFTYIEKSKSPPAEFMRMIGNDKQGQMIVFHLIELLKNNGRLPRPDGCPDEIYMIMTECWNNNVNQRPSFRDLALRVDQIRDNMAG
T2 sequence (O60674 826-1132): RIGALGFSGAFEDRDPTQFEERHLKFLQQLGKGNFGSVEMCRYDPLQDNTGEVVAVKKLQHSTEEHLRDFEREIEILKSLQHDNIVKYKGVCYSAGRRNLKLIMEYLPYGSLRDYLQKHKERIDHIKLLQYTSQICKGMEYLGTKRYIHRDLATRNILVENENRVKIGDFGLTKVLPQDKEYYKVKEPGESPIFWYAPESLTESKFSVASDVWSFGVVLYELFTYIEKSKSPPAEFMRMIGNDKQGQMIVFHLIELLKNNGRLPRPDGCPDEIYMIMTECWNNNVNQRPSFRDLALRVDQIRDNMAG
T1 sequence (O60674 536-812 V617F/W659A/W777A/F794H): as the sequence (O60674 536-812 W659A/W777A/F794H) above, with V82F counted along it

`COC(=O)N[C@@H]1CC[C@@H](n2c(=O)n(C)c3cnc(Nc4ccc5ncc(-c6cnn(C)c6)n5n4)cc32)C1` [Example 34, Methyl ((1R,3R)-3-(3-methyl-6-((3-(1-methyl-1H-pyrazol-4-yl)imidazo[1,2-b]pyridazin-6-yl)amino)-2-oxo-2,3-dihydro-1H-imidazo[4,5-c]pyridin-1-yl)cyclopentyl)carbamate]: the IC50 in assay [1] was greater than 1 µM; in assay [2], no more than 0.01 µM; in assay [3], greater than 1 µM; in assay [4], no more than 0.01 µM.
Turning to `COC(=O)N[C@@H]1CC[C@@H](n2c(=O)n(C)c3cnc(Nc4ccn5nc(-c6cnn(C)c6)cc5n4)cc32)C1` [Example 35, Methyl ((1R,3R)-3-(3-methyl-6-((2-(1-methyl-1H-pyrazol-4-yl)pyrazolo[1,5-a]pyrimidin-5-yl)amino)-2-oxo-2,3-dihydro-1H-imidazo[4,5-c]pyridin-1-yl)cyclopentyl)carbamate], the IC50 in assay [1] was greater than 1 µM; in assay [2], 0.01 to 0.1 µM; in assay [3], greater than 1 µM; in assay [4], 0.01 to 0.1 µM.
Consider `COC(=O)N[C@@H]1CC[C@@H](n2c(=O)n(C)c3cnc(Nc4ccn5ncc(-c6cnn(C)c6)c5n4)cc32)C1` [Example 36, Methyl ((1R,3R)-3-(3-methyl-6-((3-(1-methyl-1H-pyrazol-4-yl)pyrazolo[1,5-a]pyrimidin-5-yl)amino)-2-oxo-2,3-dihydro-1H-imidazo[4,5-c]pyridin-1-yl)cyclopentyl)carbamate], for which the IC50 in assay [1] is greater than 1 µM; in assay [2], 0.01 to 0.1 µM; in assay [3], greater than 1 µM; in assay [4] it was no more than 0.01 µM.
For `COC(=O)N[C@@H]1CC[C@@H](n2c(=O)n(C)c3cnc(Nc4cccc(OC5CCOCC5)n4)cc32)C1` [Example 37, Methyl ((1R,3R)-3-(3-methyl-2-oxo-6-((6-((tetrahydro-2H-pyran-4-yl)oxy)pyridin-2-yl)amino)-2,3-dihydro-1H-imidazo[4,5-c]pyridin-1-yl)cyclopentyl)carbamate], the IC50 in assay [1] was greater than 1 µM; in assay [2], 0.01 to 0.1 µM; in assay [3], greater than 1 µM; in assay [4], no more than 0.01 µM.
Regarding `COC(=O)N[C@@H]1CC[C@@H](n2c(=O)n(C)c3cnc(Nc4ccc5ncc(-c6cncn6C)n5n4)cc32)C1` [Example 38, Methyl ((1R,3R)-3-(3-methyl-6-((3-(1-methyl-1H-imidazol-5-yl)imidazo[1,2-b]pyridazin-6-yl)amino)-2-oxo-2,3-dihydro-1H-imidazo[4,5-c]pyridin-1-yl)cyclopentyl)carbamate], the IC50 is greater than 1 µM in assay [1], 0.01 to 0.1 µM in assay [2], greater than 1 µM in assay [3] and no more than 0.01 µM in assay [4].
As to `COC(=O)Nc1cc(Nc2cc3c(cn2)n(C)c(=O)n3C2[C@H]3CN(C(=O)OC)C[C@@H]23)cc(-c2cnn(C)c2)c1` (stereo partly drawn) [Example 39, Methyl (1R,5S)-6-(6-((3-((methoxycarbonyl)amino)-5-(1-methyl-1H-pyrazol-4-yl)phenyl)amino)-3-methyl-2-oxo-2,3-dihydro-1H-imidazo[4,5-c]pyridin-1-yl)-3-azabicyclo[3.1.0]hexane-3-carboxylate], the IC50 in assay [1] is greater than 1 µM; in assay [2], 0.1 to 0.5 µM; in assay [3], greater than 1 µM; in assay [4], 0.1 to 0.5 µM.
In the case of `COC(=O)Nc1cc(Nc2cc3c(cn2)n(C)c(=O)n3C2CC3CC2CN3C(C)=O)cc(-c2cnn(C)c2)c1` (stereo not shown) [Example 40, Methyl (3-((1-(2-acetyl-2-azabicyclo[2.2.1]heptan-5-yl)-3-methyl-2-oxo-2,3-dihydro-1H-imidazo[4,5-c]pyridin-6-yl)amino)-5-(1-methyl-1H-pyrazol-4-yl)phenyl)carbamate], the IC50 was greater than 1 µM in assay [1], 0.01 to 0.1 µM in assay [2], greater than 1 µM in assay [3] and 0.01 to 0.1 µM in assay [4].
On to `COC(=O)N[C@@H]1CC[C@@H](n2c(=O)n(C)c3cnc(Nc4cc(NS(=O)(=O)C5CC(F)(F)C5)cc(C5CCOCC5)c4)cc32)C1` [Example 41, Methyl ((1R,3R)-3-(6-((3-((3,3-difluorocyclobutane)-1-sulfonamido)-5-(tetrahydro-2H-pyran-4-yl)phenyl)amino)-3-methyl-2-oxo-2,3-dihydro-1H-imidazo[4,5-c]pyridin-1-yl)cyclopentyl)carbamate], for which the IC50 is greater than 1 µM in assay [1], 0.01 to 0.1 µM in assay [2], greater than 1 µM in assay [3] and 0.01 to 0.1 µM in assay [4].
Take `COC(=O)Nc1cc(Nc2cc3c(cn2)n(C)c(=O)n3C2CCC(C)(NC(=O)OC)CC2)cc(-c2cnn(C)c2)c1` (stereo not shown) [Example 42, Methyl (3-((1-(4-((methoxycarbonyl)amino)-4-methylcyclohexyl)-3-methyl-2-oxo-2,3-dihydro-1H-imidazo[4,5-c]pyridin-6-yl)amino)-5-(1-methyl-1H-pyrazol-4-yl)phenyl)carbamate]: the IC50 was greater than 1 µM in assay [1], 0.01 to 0.1 µM in assay [2], greater than 1 µM in assay [3] and 0.01 to 0.1 µM in assay [4].
In the case of `COCCOC(=O)N[C@@H]1CC[C@@H](n2c(=O)n(C)c3cnc(Nc4cc(NC(=O)OC5CCC5)cc(-c5cnn(C)c5)c4)cc32)C1` [Example 43, 2-Methoxyethyl ((1R,3R)-3-(6-((3-((cyclobutoxycarbonyl)amino)-5-(1-methyl-1H-pyrazol-4-yl)phenyl)amino)-3-methyl-2-oxo-2,3-dihydro-1H-imidazo[4,5-c]pyridin-1-yl)cyclopentyl)carbamate], the IC50 in assay [1] is greater than 1 µM; in assay [2], 0.01 to 0.1 µM; in assay [3] it was greater than 1 µM; in assay [4], 0.01 to 0.1 µM.
For `COC(=O)N[C@@H]1CC[C@@H](n2c(=O)n(C)c3cnc(Nc4cc(NC(=O)OC5CCC5)cc(C5CCOCC5)c4)cc32)C1` [Example 44, Methyl ((1R,3R)-3-(6-((3-((cyclobutoxycarbonyl)amino)-5-(tetrahydro-2H-pyran-4-yl)phenyl)amino)-3-methyl-2-oxo-2,3-dihydro-1H-imidazo[4,5-c]pyridin-1-yl)cyclopentyl)carbamate], the IC50 in assay [1], in assay [2], in assay [3] and in assay [4] was greater than 1 µM in each case.
As for `Cn1cc(-c2cc(NC(=O)OC3CCC3)cc(Nc3cc4c(cn3)n(C)c(=O)n4[C@@H]3CC[C@@H](NC(=O)OC4CCC4)C3)c2)cn1` [Example 45, Cyclobutyl ((1R,3R)-3-(6-((3-((cyclobutoxycarbonyl)amino)-5-(1-methyl-1H-pyrazol-4-yl)phenyl)amino)-3-methyl-2-oxo-2,3-dihydro-1H-imidazo[4,5-c]pyridin-1-yl)cyclopentyl)carbamate], the IC50 is greater than 1 µM in assay [1], 0.01 to 0.1 µM in assay [2], greater than 1 µM in assay [3] and 0.01 to 0.1 µM in assay [4].
`CCOC(=O)N[C@@H]1CC[C@@H](n2c(=O)n(C)c3cnc(Nc4cc(NC(=O)OC5CCC5)cc(-c5cnn(C)c5)c4)cc32)C1` [Example 46, Ethyl ((1R,3R)-3-(6-((3-((cyclobutoxycarbonyl)amino)-5-(1-methyl-1H-pyrazol-4-yl)phenyl)amino)-3-methyl-2-oxo-2,3-dihydro-1H-imidazo[4,5-c]pyridin-1-yl)cyclopentyl)carbamate]: the IC50 is greater than 1 µM in assay [1], 0.01 to 0.1 µM in assay [2], greater than 1 µM in assay [3] and 0.01 to 0.1 µM in assay [4].
